Experimental data published in patent US20120016019A1, “PHARMACEUTICAL COMPOSITION FOR TREATING OR PREVENTING CANCER” (priority 2010, published 2012).
“And” between values parts separate entries of the source, which are not always exact repeats. Equal entries are not always repeated. “Also recorded” adds a separate entry of the source. Where two headings read alike, the source gives them in different places.

Columns and labels:
HCC 1419 = assay: Cell counts, HCC 1419; format: cell-based; conditions: for cell counts: single wells
Description: Cells were plated into 48-well Corning CellBind™ plates at densities of 20,000 cells for normal cells and 10,000˜20,000 cells for cancer cells. […] The first time point treated with the composition of the invention is 0 h.
(§6) Cells were harvested using Trypsin-EDTA at the designated time points. […] Two 48-well plates were used per cell line, and they were measured at 0 h, 12 h, 24 h, 48 h, 4 d and 7 d, respectively.
(§7) In the 1st plate, cells were treated with the composition according to the invention and medium was changed at 0 h and 3 d. […] As a result, LC-50 curves were generated in the 1st week.

MDA-MB-468 = assay: Cell counts, MDA-MB-468; format: cell-based; conditions: for cell counts: single wells
Description: (§8) Cancer cell lines HCC 1419, MCF-7, MDA-MB-468, SKBR3, PC3, HT1299, Saos-2, C-6, AsPc, MDA-MB-231, RKO, HeLa and TT, and normal cell lines HME 50 HT, BJ and CCD-1074sk were tested for changes in metabolism (XTT assay) and cell death (cell counts).
as §6, §7

MDA-MB-231 = conditions: human, 0 h, 220 nM
Description: (§1) Cells were plated into 48-well Corning CellBind™ plates at densities of 20,000 cells for normal cells and 10,000˜20,000 cells for cancer cells. 24 to 48 h after plating, cells were treated with the composition according to the invention at concentrations of 4.5e-2M. The first time point treated with the composition of the invention is 0 h. At 3 days after the first treatment with the composition of the invention, medium was changed and the composition of the invention at the same concentrations were added to the cultured cells.
(§2) Cells were harvested using Trypsin-EDTA at the designated time points. When total cells for each well were counted with a Beckman-Coulter Z1 Particle Characterization Unit, the vertical axis represents 1/20 of cell number in the Figures attached to the specification, while when counted with a Beckman-Coulter Vi-Cell, the vertical axis represents cell number in the Figures. Two 48-well plates were used per cell line, and they were measured at 0 h, 12 h, 24 h, 48 h, 4 d and 7 d, respectively.
(§3) The viability was determined by using the trypan blue staining in the well of cell counting.

RKO = conditions: human, 220 nM
Description: as §1, §2, §3

SKBR3 = conditions: human, 220 nM
Description: as §1, §2, §3

AsPc = assay: Cell counts, AsPc; format: cell-based
Description: as §8, §6, §7

TT = assay: Cell counts, TT; format: cell-based
Description: (§4) As a result, LC-50 curves were generated in the 1st week.
(§5) In the 2nd plate, 7 d of the 1st week (LC-50) is the same as 0 h of the 2nd week (recovery).
At 0 h of the 2nd week, medium was exchanged with untreated medium for the remainder of the experiment. […] As a result, Recovery curves were generated in the 2nd week.

HME 50 HT = format: cell-based; conditions: for cell counts: single count
Description: as §4, §5
At 0 h of the 2nd week, medium was exchanged with untreated medium for the remainder of the experiment. The untreated controls were not measured in the 2nd week (recovery) due to overconfluence by the end of the 1st week. As a result, Recovery curves were generated in the 2nd week.
Human Mammary Epithelial (HME) cells were derived from adjacent normal tissue.

in vitro = format: cell-based; conditions: human
CCD-1074sk = assay: in vitro; format: cell-based; conditions: human, 220 nM
[1] = HME 50 HT, 1st week (LC50), 0 h
[2] = HME 50 HT, 1st week (LC50), 12 h
[3] = HME 50 HT, 1st week (LC50), 24 h
[4] = HME 50 HT, 1st week (LC50), 48 h
[5] = HME 50 HT, 1st week (LC50), 4 d
[6] = HME 50 HT, 1st week (LC50), 7 d
[7] = viability (%) calculated from the cell counts

CC(=O)O[C@H]1C(=O)[C@@]2(C)[C@H]([C@H](OC(=O)c3ccccc3)[C@]3(O)C[C@H](OC(=O)[C@H](O)[C@@H](NC(=O)c4ccccc4)c4ccccc4)C(C)=C1C3(C)C)[C@]1(OC(C)=O)CO[C@@H]1C[C@@H]2O [Taxol]
growth pattern of the cells in the well (microscopy) (HCC 1419): growing in a diffuse, spreading pattern over the whole well | number of cancer cells (course) (HCC 1419; 1st week (LC50) and 2nd week (recovery)): did not decreased any more and was maintained | cell counts, Mean value (HCC 1419; 1st week (LC50), 0 h): 3156 | cell counts (HCC 1419; 1st week (LC50), 0 h): 3055 and 2626 and 3788 | cell counts, Mean value (HCC 1419; 1st week (LC50), 12 h): 3479 | cell counts (HCC 1419; 1st week (LC50), 12 h): 3434 and 3451 and 3553 | cell counts, Mean value (HCC 1419; 1st week (LC50), 24 h): 3036 | cell counts (HCC 1419; 1st week (LC50), 24 h): 2957 and 3488 and 2664 | cell counts, Mean value (HCC 1419; 1st week (LC50), 48 h): 2978 | cell counts (HCC 1419; 1st week (LC50), 48 h): 2232 and 3502 and 3199 | cell counts, Mean value (HCC 1419; 1st week (LC50), 4 d): 2544 | cell counts (HCC 1419; 1st week (LC50), 4 d): 1716 and 2940 and 2975 | cell counts, Mean value (HCC 1419; 1st week (LC50), 7 d): 1741 | cell counts (HCC 1419; 1st week (LC50), 7 d): 1718 and 1710 and 1794 | cell counts, Mean value (HCC 1419; 2nd week (recovery), 0 h): 8878 | cell counts (HCC 1419; 2nd week (recovery), 0 h): 8472 and 8522 and 9639 | cell counts (HCC 1419; 2nd week (recovery), 24 h): 7966 | cell counts (HCC 1419; 2nd week (recovery), 48 h): 4901 | cell counts (HCC 1419; 2nd week (recovery), 7 d): 7316 and 3792 | cell counts (trend) (MDA-MB-468): increasing; also recorded: again recovering | cell counts, Mean value (MDA-MB-468; 1st week (LC50), 0 h): 36000 | cell counts (MDA-MB-468; 1st week (LC50), 0 h): 32000 and 40000 | cell counts, Mean value (MDA-MB-468; 1st week (LC50), 24 h): 23333 | cell counts (MDA-MB-468; 1st week (LC50), 24 h): 24000 and 30000 and 16000 | cell counts, Mean value (MDA-MB-468; 1st week (LC50), 48 h): 13000 | cell counts (MDA-MB-468; 1st week (LC50), 48 h): 10000 and 12000 and 17000 | cell counts, Mean value (MDA-MB-468; 1st week (LC50), 4 d): 17667 | cell counts (MDA-MB-468; 1st week (LC50), 4 d): 15000 and 18000 and 20000 | cell counts, Mean value (MDA-MB-468; 1st week (LC50), 7 d): 9000 | cell counts, Mean value (MDA-MB-468; 2nd week (recovery), 0 h): 8333 | cell counts, Mean value (MDA-MB-468; 2nd week (recovery), 24 h): 3667 | cell counts (MDA-MB-468; 2nd week (recovery), 24 h): 4000 and 3000 | cell counts, Mean value (MDA-MB-468; 2nd week (recovery), 48 h): 8333 | cell counts, Mean value (MDA-MB-468; 2nd week (recovery), 4 d): 9333 | cell counts (MDA-MB-468; 2nd week (recovery), 4 d): 9000 and 10000 | cell counts, Mean value (MDA-MB-468; 2nd week (recovery), 7 d): 11667 | cell counts (MDA-MB-468; 2nd week (recovery), 7 d): 9000 and 11000 and 15000 | viability (%), Mean value (MDA-MB-231): 44.2% | viability (%), Mean value (RKO; 0 h): 40% | viability (%), Mean value (RKO; 24 h): 43% | viability (%), Mean value (SKBR3; 24 h): 70% | viability (%) calculated from the cell counts (SKBR3; 48 h): 0% | viability (%), Mean value (SKBR3; 48 h): 17% | viability (%) calculated from the cell counts (SKBR3; 4 d): 0% | viability (%), Mean value (SKBR3; 4 d): 33% | viability (%), Mean value (SKBR3; 7 d): 50% | process of cell death (microscopy) (AsPc): cell membranes were ruptured by toxicity of Taxol, and then nuclei of cells changed into black | cell counts (AsPc; 1st week (LC50), 0 h): 2340 and 2039 and 2111 | cell counts, Mean value (AsPc; 1st week (LC50), 0 h): 2163 | cell counts (AsPc; 1st week (LC50), 12 h): 2833 and 2279 and 2550 | cell counts, Mean value (AsPc; 1st week (LC50), 12 h): 2554 | cell counts (AsPc; 1st week (LC50), 24 h): 2336 and 2161 and 2310 | cell counts, Mean value (AsPc; 1st week (LC50), 24 h): 2269 | cell counts (AsPc; 1st week (LC50), 48 h): 2810 and 2130 and 1800 | cell counts (AsPc; 1st week (LC50), 4 d): 2007 and 2100 | cell counts, Mean value (AsPc; 1st week (LC50), 4 d): 2042 | cell counts (AsPc; 1st week (LC50), 7 d): 2174 and 1902 | cell counts, Mean value (AsPc; 1st week (LC50), 7 d): 1823 | cell counts (AsPc; 2nd week (recovery), 0 h): 1213 and 1770 | cell counts (AsPc; 2nd week (recovery), 48 h): 1210 and 1202 | cell counts, Mean value (AsPc; 2nd week (recovery), 4 d): 631 | cell counts (AsPc; 2nd week (recovery), 7 d): 73 and 85 | cell counts, Mean value (AsPc; 2nd week (recovery), 7 d): 86 | cell counts (TT; 1st week (LC50), 0 h): 133000 and 117500 and 123000 | cell counts, Mean value (TT; 1st week (LC50), 0 h): 124500 | cell counts, Mean value (TT; 1st week (LC50), 24 h): 106333 | cell counts (TT; 1st week (LC50), 48 h): 175000 and 109000 and 114000 | cell counts, Mean value (TT; 1st week (LC50), 48 h): 132667 | cell counts (TT; 1st week (LC50), 4 d): 84000 and 72500 and 56000 | cell counts, Mean value (TT; 1st week (LC50), 4 d): 70833 | cell counts (TT; 1st week (LC50), 7 d): 35000 and 26000 | cell counts, Mean value (TT; 1st week (LC50), 7 d): 32000 | cell counts, Mean value (TT; 2nd week (recovery), 0 h, mean value): 44000 | cell counts (TT; 2nd week (recovery), 0 h, single count): 44000 and 53000 and 35000 | cell counts, Mean value (TT; 2nd week (recovery), 24 h, mean value): 17667 | cell counts, Mean value (TT; 2nd week (recovery), 48 h, mean value): 30667 | cell counts (TT; 2nd week (recovery), 48 h, single count): 35000 and 31000 and 26000 | cell counts, Mean value (TT; 2nd week (recovery), 4 d, mean value): 16667 | cell counts (TT; 2nd week (recovery), 4 d, single count): 15000 and 12500 | cell counts, Mean value (TT; 2nd week (recovery), 7 d, mean value): 11500 | number of normal cells (HME 50 HT): the number of cells did not increase, and was merely maintained for two weeks | cell counts, Mean value (HME 50 HT; [1]): 14667 | cell counts (HME 50 HT; [1]): 12000 and 11000 and 21000 | cell counts, Mean value (HME 50 HT; [2]): 16667 | cell counts (HME 50 HT; [2]): 14000 and 23000 and 13000 | cell counts, Mean value (HME 50 HT; [3]): 11333 | cell counts (HME 50 HT; [3]): 14000 and 11000 and 9000 | cell counts, Mean value (HME 50 HT; [4]): 15667 | cell counts (HME 50 HT; [4]): 18000 and 11000 | cell counts, Mean value (HME 50 HT; [5]): 9000 | cell counts (HME 50 HT; [5]): 9000 | cell counts, Mean value (HME 50 HT; [6]): 16667 | cell counts (HME 50 HT; [6]): 17000 and 19000 and 14000 | cell counts, Mean value (HME 50 HT; HME, 2nd week (recovery), 0 h): 16333 | cell counts (HME 50 HT; HME, 2nd week (recovery), 0 h): 19000 and 17000 and 13000 | cell counts, Mean value (HME 50 HT; HME, 2nd week (recovery), 12 h): 13667 | cell counts (HME 50 HT; HME, 2nd week (recovery), 12 h): 13000 and 15000 | cell counts, Mean value (HME 50 HT; HME, 2nd week (recovery), 24 h): 12667 | cell counts (HME 50 HT; HME, 2nd week (recovery), 24 h): 12000 and 15000 and 11000 | cell counts, Mean value (HME 50 HT; HME, 2nd week (recovery), 48 h): 17000 | cell counts (HME 50 HT; HME, 2nd week (recovery), 48 h): 18000 and 16000 and 17000 | cell counts, Mean value (HME 50 HT; HME, 2nd week (recovery), 4 d): 16333 | cell counts (HME 50 HT; HME, 2nd week (recovery), 4 d): 18000 and 19000 and 12000 | cell counts, Mean value (HME 50 HT; HME, 2nd week (recovery), 7 d): 16000 | cell counts (HME 50 HT; HME, 2nd week (recovery), 7 d): 14000 and 19000 and 15000 | viability at 0 h, 2.2e-07 M (in vitro; [7]): 70% | viability at 24 h, 2.2e-07 M (in vitro; [7]): 71% | viability at 4 d, 2.2e-07 M (in vitro; [7]): 43% | viability at 0 h, 2.2e-07 M (in vitro; viability (%), Mean value): 73% | viability at 24 h, 2.2e-07 M (in vitro; viability (%), Mean value): 80% | viability at 4 d, 2.2e-07 M (in vitro; viability (%), Mean value): 38% | viability (%), Mean value (CCD-1074sk; 0 h): 79% | viability (%) calculated from the cell counts (CCD-1074sk; 48 h): 83% | viability (%) calculated from the cell counts (CCD-1074sk; 4 d): 33%
